Data: patent publication US20100234454A1 (priority 2006, published 2010)

Assays:
rats [1] = assay: Flinches in rats after intraplantar injection of capsaicin; type: in vivo, rat
rats [2] = details: rat, in vivo

Row | SMILES | number of flinches (mean) after intraplantar capsaicin alone (rats [1]; 10 μg capsaicin intraplantar, 4 minutes observation, n=6) | reduction of induced pain effect (rats [2]) [%] | dose needed to decrease half of the number of flinches induced by the venom (rats [2]; sc) [mg/kg] | dose of maximal analgesic effect (rats [2]; sc) [mg/kg] | number of flinches (mean) after intraplantar capsaicin following BCTC conditioning (rats [1]; 40 mg/kg BCTC s.c. one hour before capsaicin, 4 minutes, p<0.05, n=6)
1 | COc1cc(CNC(=O)CCCC/C=C/C(C)C)ccc1O [capsaicin] | 76.0 |  |  |  | 
2 | CC(C)(C)c1ccc(NC(=O)N2CCN(c3ncccc3Cl)CC2)cc1 [BCTC, N-(4-Tertiarybutylphenyl)-4-(3-cholorphyridin-2-yl)tetrahydropyrazine-1(2H)-carbox-amide] |  | 79 | 10 to 40 | 40 | 4.2
